Results on 2 compounds are retold here after patent US20260327655A1, “SMALL-MOLECULE REGULATED ALTERNATIVE SPLICING” (priority 2023, published 2026).

One assay concerns RS1-1 and variants. Briefly: Luciferase induction assay, RS1-1 and variants in HEK-293T cells. Format: cell-based, human. The following applies: RS1-1, RS1-2, RS1-3, RS1-4, RS1-7, and RS1-9; FIG. 9A; 18 hours. The protocol: (§1) HEK-293T cells were cultured in DMEM+10% FBS, collected after trypsinization, and dispensed into 96-well plates (cell culture-treated). Each well of the plate was seeded with 1.0×10^5 cells in 100 μL culture medium. After a 1-hour incubation in the tissue culture incubator (5% CO2, 37° C.), plasmid DNA was complexed with a transfection reagent, such as Lipofectamine 3000, and added to respective wells on the plate. Each well received 100 ng of plasmid DNA complexed with 0.15 μL Lipofectamine 3000. The plasmids utilized in the experiment encoded a CMV promoter upstream of the RS1-1 variant that controlled the expression of a Firefly Luciferase gene followed by a SV40 polyadenylation signal. After a 10-minute incubation at room temperature, either DMSO vehicle or a splice modulator compound at specified doses was added to the wells of the plate. Plates were then incubated for 18 hours in a tissue culture incubator. Endpoint analysis was performed by adding 100 μL of a Luciferase substrate, such as Steady-Luc Firefly Luciferase substrate, to each well of the assay plate. The liquid contents of each was transferred to a 96-well plate, mixed again for 2 min on an orbital shaker, and incubated at room temperature for 5 min. Finally, the luminescent signal from each well was measured with a plate reader.

In the next assay the test system is RS1-10, HepG2 cells. Briefly: RS1-10 performance in HepG2 cells. In kind it is cell-based, human. The conditions noted are these: CBA promoter, 18 hours, FIG. 10D. As to the method: The human SH-SY5Y neuroblastoma cell line or the human hepatic HepG2 cell line was cultured in EMEM+10% FBS, collected after trypsinization, and then dispensed into 96-well plates (cell culture-treated). Each well of the plate was seeded with 1.0×10^5 cells in 100 μL culture medium. After a 1-hour incubation in the tissue culture incubator (5% CO2, 37 degrees C.), plasmid DNA was complexed with a transfection reagent, such as Lipofectamine 3000, and added to respective wells on the plate. Each well received an equivalent of 100 ng of plasmid DNA complexed with 0.15 μL Lipofectamine 3000 (Opti-MEM I was used as diluent). Triplicate wells were used for each condition tested in the experiment. The plasmids utilized in the human SH-SY5Y neuroblastoma cell line encoded either a CBA promoter or cloned human Synapsin promoter upstream of the RS1-10 construct that controlled the expression of a Firefly Luciferase gene followed by a SV40 polyadenylation signal. The plasmids utilized in the HepG2 cells encoded a CBA promoter upstream of the RS1-10 construct that controlled the expression of a Firefly Luciferase gene followed by a SV40 polyadenylation signal.
After a 10-minute incubation at room temperature, either DMSO vehicle or TA was added to the wells of the plate. […] Finally, the luminescent signal from each well was measured with a plate reader. […]

Assay [1] concerns RS1-10 minigene (Firefly Luciferase), HEK-293T cells. Briefly: Luciferase induction assay, RS1-10 with splice modulator compounds in HEK-293T cells. Format: cell-based. The following applies: Homo sapiens, 18 hours, n of 3, read-out: Mean fold-induction of luciferase (relative to vehicle control). As to the method:
(§2) HEK-293T cells were cultured in DMEM+10% FBS, collected after trypsinization, and then dispensed into 96-well plates (cell culture-treated). Each well of the plate was seeded with 1.0×10^5 cells in 100 μL culture medium. After a 1-hour incubation in a tissue culture incubator (5% CO2, 37 degrees C.), plasmid DNA was complexed with a transfection reagent, such as Lipofectamine 3000, and added to respective wells on the plate. Each well received an equivalent of 100 ng of plasmid DNA complexed with 0.15 μL Lipofectamine. Triplicate wells were used for each condition tested in the experiment. The plasmid utilized in the experiment encoded a CMV promoter upstream of the RS I-10 variant that controlled the expression of a Firefly Luciferase gene followed by a SV40 polyadenylation signal. After a 10-minute incubation at room temperature, either DMSO vehicle or specified compound at specified dose was added to the wells of the plate. Plates were then incubated for 18 hours in a tissue culture incubator. Endpoint analysis was performed by adding 100 uL Steady-Luc Firefly Luciferase substrate to each well of the assay plate. After mixing, the liquid contents of each was transferred to a 96-well plate, mixed again for 2 min on an orbital shaker, and incubated at room temperature for 5 min. Finally, the luminescent signal from each well was measured with a with PerkinElmer Envision plate reader. The results of this assay show RS1-10 responded to the majority of the splice modulator compounds used in a dose responsive manner (FIG. 9C). Bars represent mean+/−standard deviation of 3 wells normalized to vehicle controls.

Assay [2] concerns RS2-3 minigene (Firefly Luciferase), HEK-293T cells. The assay is described as follows: Luciferase induction assay, RS2-3 with splice modulator compounds in HEK-293T cells. Format: cell-based. The following applies: Homo sapiens, 18 hours, n of 3, read-out: Mean fold-induction of luciferase (relative to vehicle control). The protocol:
as §2, with “RS2-3” for “RS I-10”, “RS2-3” for “RS1-10”, “used” for “used in a dose responsive manner”, “13C)” for “9C).”

Assay [3] concerns RS3-13 minigene (Firefly Luciferase), HEK-293T cells. The assay is described as follows: Luciferase induction assay, RS3-13 with splice modulator compounds in HEK-293T cells. Format: cell-based. The following applies: Homo sapiens, 18 hours, n of 3, read-out: Mean fold-induction of luciferase (relative to vehicle control). As to the method:
as §2, with “RS3-13” for “the RS I-10 variant”, “RS3-13” for “RS1-10”, “used” for “used in a dose responsive manner”, “14D)” for “9C).”

The next assay relates to RS2-1 and variants. The assay is described as follows: Luciferase induction assay, RS2-1 and variants in HEK-293T cells. In kind it is cell-based, human. The conditions noted are these: 300 nM (FIG. 13A), 18 hours, FIGS. 13A, 13B. The protocol: as §1, with “RS2-1 construct and variants” for “RS1-1 variant”, “100B” for “a splice modulator compound”, “reader. […]” for “reader.”

`Cc1cn2cc(-c3ccc(-c4ccc(C5CNC5)nn4)c(O)c3)cc(F)c2n1.Cl` [1 A, 2-(6-(azetidin-3-yl)pyridazin-3-yl)-5-(8-fluoro-2-methylimidazo[1,2-a]pyridin-6-yl)phenol, HCl]: in the assay with RS1-1 and variants, the “fold induction of luciferase” value is “increasing fold induction of luciferase with increasing concentration of splice modulator”. The fold-induction of luciferase entry in the assay on RS1-10, HepG2 cells is listed as “showed fold-induction of luciferase”.
`Cc1cn2cc(-c3nc(=O)n4cc(N5CCNCC5)ccc4n3)cc(F)c2n1.Cl` [Compound 100B, 2-(8-fluoro-2-methylimidazo[1,2-a]pyridin-6-yl)-7-(piperazin-1-yl)-4H-pyrido[1,2-a][1,3,5]triazin-4-one hydrochloride]: the fold induction at 0.1 µM in assay [1] (RS1-10, 100 nM) was found to be 11.9; in assay [2] (RS2-3, 100 nM), 9.79; in assay [3] (RS3-13, 100 nM), 10. For the same compound, the fold induction at 1 µM in assay [1] (RS1-10, 1,000 nM) worked out at 57.1; in assay [2] (RS2-3, 1,000 nM), 26.4; in assay [3] (RS3-13, 1,000 nM), 42.4. In the assay on RS2-1 and variants, the “fold induction of luciferase compared to vehicle, constructs vs RS2-1” value was “The majority of the constructs show higher fold induction of luciferase”.
